The compounds below were run on HBV rcDNA in HepDE19 cells (assay: HepDE19 assay with bDNA quantitation of HBV rcDNA). Details: HepDE19 assay, inhibition of rcDNA formation, bDNA quantitation; read-out: DE-19bDNA EC50.
Type: cell-based, hepatitis B virus

| SMILES | EC50 [nM] |
| --- | --- |
| CN(C(=O)c1ccc2cccn2c1)C1COCc2[nH]c(=O)c3cc(F)ccc3c21 (single isomer, unassigned) [Compound 390, N-(8-Fluoro-6-oxo-1,4,5,6-tetrahydro-2H-pyrano[3,4-c]isoquinolin-1-yl)-N-methylindolizine-6-carboxamide] | 70 |
| CN(C(=O)c1ccc2cccn2c1)C1CNCc2[nH]c(=O)c3cc(F)c(F)cc3c21 (single isomer, unassigned) [Compound 391, N-(8,9-difluoro-6-oxo-1,2,3,4,5,6-hexahydrobenzo[c][1,7]naphthyridin-1-yl)-N-methylindolizine-6-carboxamide] | 22000 |
| CN(C(=O)c1ccc2cccn2c1)C1CNCc2[nH]c(=O)c3cc(F)c(F)cc3c21 (single isomer, unassigned) [Compound 392, N-(8,9-difluoro-6-oxo-1,2,3,4,5,6-hexahydrobenzo[c][1,7]naphthyridin-1-yl)-N-methylindolizine-6-carboxamide] | 90 |
| CCc1cc(F)cc2[nH]c(C(=O)N(C)C3COCc4[nH]c(=O)c5cc(F)ccc5c43)cc12 (single isomer, unassigned) [Compound 393, 4-Ethyl-6-fluoro-N-(8-fluoro-6-oxo-1,4,5,6-tetrahydro-2H-pyrano[3,4-c]isoquinolin-1-yl)-N-methyl-1H-indole-2-carboxamide] | 1200 |
| CCc1cc(F)cc2[nH]c(C(=O)N(C)C3COCc4[nH]c(=O)c5cc(F)ccc5c43)cc12 (single isomer, unassigned) [Compound 394, 4-Ethyl-6-fluoro-N-(8-fluoro-6-oxo-1,4,5,6-tetrahydro-2H-pyrano[3,4-c]isoquinolin-1-yl)-N-methyl-1H-indole-2-carboxamide] | 460 |
| CN(C(=O)c1cc2cc(C#N)ccc2[nH]1)C1COCc2[nH]c(=O)c3cc(F)ccc3c21 (single isomer, unassigned) [Compound 397, 5-Cyano-N-(8-fluoro-6-oxo-1,4,5,6-tetrahydro-2H-pyrano[3,4-c]isoquinolin-1-yl)-N-methyl-1H-indole-2-carboxamide] | 17000 |
| CN(C(=O)c1cc2cc(C#N)ccc2[nH]1)C1COCc2[nH]c(=O)c3cc(F)ccc3c21 (single isomer, unassigned) [Compound 398, 5-Cyano-N-(8-fluoro-6-oxo-1,4,5,6-tetrahydro-2H-pyrano[3,4-c]isoquinolin-1-yl)-N-methyl-1H-indole-2-carboxamide] | 270 |
| CN(C(=O)c1cc2c(C#N)cc(F)cc2[nH]1)C1CNCc2[nH]c(=O)c3cc(F)c(F)cc3c21 (single isomer, unassigned) [Compound 399, 4-Cyano-N-(8,9-difluoro-6-oxo-1,2,3,4,5,6-hexahydrobenzo[c][1,7]naphthyridin-1-yl)-6-fluoro-N-methyl-1H-indole-2-carboxamide] | 3800 |
| CN(C(=O)c1cc2c(C#N)cc(F)cc2[nH]1)C1CNCc2[nH]c(=O)c3cc(F)c(F)cc3c21 (single isomer, unassigned) [Compound 400, 4-Cyano-N-(8,9-difluoro-6-oxo-1,2,3,4,5,6-hexahydrobenzo[c][1,7]naphthyridin-1-yl)-6-fluoro-N-methyl-1H-indole-2-carboxamide] | 90 |
| CCc1cc(F)cc2[nH]c(C(=O)N(C)C3CNCc4[nH]c(=O)c5cc(F)c(F)cc5c43)cc12 (single isomer, unassigned) [Compound 401, N-(8,9-Difluoro-6-oxo-1,2,3,4,5,6-hexahydrobenzo[c][1,7]naphthyridin-1-yl)-4-ethyl-6-fluoro-N-methyl-1H-indole-2-carboxamide] | 2500 |
| CCc1cc(F)cc2[nH]c(C(=O)N(C)C3CNCc4[nH]c(=O)c5cc(F)c(F)cc5c43)cc12 (single isomer, unassigned) [Compound 402, N-(8,9-Difluoro-6-oxo-1,2,3,4,5,6-hexahydrobenzo[c][1,7]naphthyridin-1-yl)-4-ethyl-6-fluoro-N-methyl-1H-indole-2-carboxamide] | 20 |
| CN(C(=O)c1cnc(C(F)(F)F)c(F)c1)C1COCc2[nH]c(=O)c3cc(F)ccc3c21 (single isomer, unassigned) [Compound 414, 5-Fluoro-N-(8-fluoro-6-oxo-1,4,5,6-tetrahydro-2H-pyrano[3,4-c]isoquinolin-1-yl)-N-methyl-6-(trifluoromethyl)nicotinamide] | 170 |
| CN(C(=O)c1cc2sccc2[nH]1)C1CNCc2[nH]c(=O)c3cc(F)c(F)cc3c21 (single isomer, unassigned) [Compound 420, N-(8,9-Difluoro-6-oxo-1,2,3,4,5,6-hexahydrobenzo[c][1,7]naphthyridin-1-yl)-N-methyl-4H-thieno[3,2-b]pyrrole-5-carboxamide] | 660 |
| CN(C(=O)c1cc2sccc2[nH]1)C1CNCc2[nH]c(=O)c3cc(F)c(F)cc3c21 (single isomer, unassigned) [Compound 421, N-(8,9-Difluoro-6-oxo-1,2,3,4,5,6-hexahydrobenzo[c][1,7]naphthyridin-1-yl)-N-methyl-4H-thieno[3,2-b]pyrrole-5-carboxamide] | 40 |
| Cc1cccc2[nH]c(C(=O)N(C)C3COCc4[nH]c(=O)c5cc(F)ccc5c43)cc12 (single isomer, unassigned) [Compound 422, N-(8-Fluoro-6-oxo-1,4,5,6-tetrahydro-2H-pyrano[3,4-c]isoquinolin-1-yl)-N,4-dimethyl-1H-indole-2-carboxamide] | 1200 |
| Cc1cccc2[nH]c(C(=O)N(C)C3COCc4[nH]c(=O)c5cc(F)ccc5c43)cc12 (single isomer, unassigned) [Compound 423, N-(8-Fluoro-6-oxo-1,4,5,6-tetrahydro-2H-pyrano[3,4-c]isoquinolin-1-yl)-N,4-dimethyl-1H-indole-2-carboxamide] | 10 |
| CN(C(=O)c1cc2c(Cl)cccc2[nH]1)C1COCc2[nH]c(=O)c3cc(F)ccc3c21 (single isomer, unassigned) [Compound 424, 4-Chloro-N-(8-fluoro-6-oxo-1,4,5,6-tetrahydro-2H-pyrano[3,4-c]isoquinolin-1-yl)-N-methyl-1H-indole-2-carboxamide] | 510 |
| CN(C(=O)c1cc2c(Cl)cccc2[nH]1)C1COCc2[nH]c(=O)c3cc(F)ccc3c21 (single isomer, unassigned) [Compound 425, 4-Chloro-N-(8-fluoro-6-oxo-1,4,5,6-tetrahydro-2H-pyrano[3,4-c]isoquinolin-1-yl)-N-methyl-1H-indole-2-carboxamide] | 20 |
| CN(C(=O)c1cc2c(C(F)F)cccn2c1)C1CNCc2[nH]c(=O)c3cc(F)c(F)cc3c21 (single isomer, unassigned) [Compound 430, N-(8,9-Difluoro-6-oxo-1,2,3,4,5,6-hexahydrobenzo[c][1,7]naphthyridin-1-yl)-8-(difluoromethyl)-N-methylindolizine-2-carboxamide] | 6300 |
| CN(C(=O)c1cc2c(C(F)F)cccn2c1)C1CNCc2[nH]c(=O)c3cc(F)c(F)cc3c21 (single isomer, unassigned) [Compound 431, N-(8,9-Difluoro-6-oxo-1,2,3,4,5,6-hexahydrobenzo[c][1,7]naphthyridin-1-yl)-8-(difluoromethyl)-N-methylindolizine-2-carboxamide] | 10 |
| CN(C(=O)c1cc2cccc(C(F)F)n2c1)C1CNCc2[nH]c(=O)c3cc(F)c(F)cc3c21 (single isomer, unassigned) [Compound 432, N-(8,9-Difluoro-6-oxo-1,2,3,4,5,6-hexahydrobenzo[c][1,7]naphthyridin-1-yl)-5-(difluoromethyl)-N-methylindolizine-2-carboxamide] | 23000 |
| CN(C(=O)c1cc2cccc(C(F)F)n2c1)C1CNCc2[nH]c(=O)c3cc(F)c(F)cc3c21 (single isomer, unassigned) [Compound 433, N-(8,9-Difluoro-6-oxo-1,2,3,4,5,6-hexahydrobenzo[c][1,7]naphthyridin-1-yl)-5-(difluoromethyl)-N-methylindolizine-2-carboxamide] | 50 |
| CN(C(=O)c1cc2c(Cl)cc(F)cc2[nH]1)C1COCc2[nH]c(=O)c3cc(F)ccc3c21 (single isomer, unassigned) [Compound 438, 4-Chloro-6-fluoro-N-(8-fluoro-6-oxo-1,4,5,6-tetrahydro-2H-pyrano[3,4-c]isoquinolin-1-yl)-N-methyl-1H-indole-2-carboxamide] | 1700 |

Same assay, conditions: Hepatitis B virus, HepDE19, HepDE19 assay, inhibition of rcDNA formation, bDNA quantitation; read-out: DE-19bDNA EC50

| SMILES | EC50 [nM] |
| --- | --- |
| CN(C(=O)c1cc2cc(S(C)(=O)=O)ccc2[nH]1)C1CNCc2[nH]c(=O)c3cc(F)c(F)cc3c21 (single isomer, unassigned) [Compound 403, N-(8,9-Difluoro-6-oxo-1,2,3,4,5,6-hexahydrobenzo[c][1,7]naphthyridin-1-yl)-N-methyl-5-(methylsulfonyl)-1H-indole-2-carboxamide] | 25000 |
| CN(C(=O)c1cc2cc(C#N)ccc2[nH]1)C1CNCc2[nH]c(=O)c3cc(F)c(F)cc3c21 (single isomer, unassigned) [Compound 406, 5-Cyano-N-(8,9-difluoro-6-oxo-1,2,3,4,5,6-hexahydrobenzo[c][1,7]naphthyridin-1-yl)-N-methyl-1H-indole-2-carboxamide] | 190 |
| CN(C(=O)c1cnc(C(F)(F)F)c(Cl)c1)C1CNCc2[nH]c(=O)c3cc(F)c(F)cc3c21 (single isomer, unassigned) [Compound 419, 5-Chloro-N-(8,9-difluoro-6-oxo-1,2,3,4,5,6-hexahydrobenzo[c][1,7]naphthyridin-1-yl)-N-methyl-6-(trifluoromethyl)nicotinamide] | 140 |
| CN(C(=O)c1cnc(C(F)(F)F)c(F)c1)C1CNCc2[nH]c(=O)c3cc(F)c(F)cc3c21 (single isomer, unassigned) [Compound 435, N-(8,9-Difluoro-6-oxo-1,2,3,4,5,6-hexahydrobenzo[c][1,7]naphthyridin-1-yl)-5-fluoro-N-methyl-6-(trifluoromethyl)nicotinamide] | 260 |

— patent US20240228504A1, “SUBSTITUTED TRICYCLIC AMIDES, ANALOGUES THEREOF, AND METHODS USING SAME” (Arbutus Biopharma Corporation, priority 2020, published 2024)
